Reference: patent publication US20140147853A1, “Method for Predicting Respiratory Toxicity of Compounds” (priority 2009, published 2014)
Entries after “also recorded” stand apart in the source; their conditions may differ. Where two headings read alike, the source gives them in different places.

How the values were obtained:
EPIAIRWAY cells [1] = assay: Cell viability by MTT reduction in EPIAIRWAY 3-D model; type: cell-based, human
Protocol: (§1) The dosing regimen used here brackets this dose. […] Again, the dosing regimen used brackets this concentration. […] This calculates to 750 ng/cm^2.
Cell viability was determined by measuring the reduction of 3-[4,5-dimethylthiazol-2-yl]2,5-diphenyltetrazolium bromide (MTT). The cells in each well were evaluated for their ability to reduce soluble-MTT (yellow) to formazan-MTT (purple). An MTT stock solution was prepared […] complete medium just prior to use and warmed to 37° C. in a water bath. Once the media and dosing solution was removed from all wells, MTT solution was added to the basal side of each well and the plate was allowed to incubate at 37° C. for 3-4 hr. Media was removed and the purple formazan product was extracted using anhydrous isopropanol applied to both the apical and basal side of the cells. Sample absorbance was read at 570 nm and reference absorbance at 650 nm with a Packard Fusion or equivalent plate reader.

EPIAIRWAY cells [2] = assay: Intracellular glutathione (GSH) levels, oxidative stress; type: cell-based, human
Protocol: as §1
Intracellular glutathione levels were determined essentially as described by Griffith (1980) with modifications. At the end of the exposure period, the medium was removed from the cells and metaphosphoric acid (MPA) was added to each well. Plates were then shaken for 5 min at room temperature and stored at −20° C. until needed.

Bcl2 = assay: qRT-PCR gene expression in EPIAIRWAY cells; type: cell-based, human; conditions: 24 hours
Protocol: as §1

IL-1α = assay: qRT-PCR gene expression in EPIAIRWAY cells; type: cell-based, human; conditions: 24 hours; 1, 10, 30, 100 dosed
Protocol: as §1

IL-6 = assay: qRT-PCR gene expression in EPIAIRWAY cells; type: cell-based, human; conditions: for IL-6 mRNA expression vs control: 24 hours, 1, 10, 30, 100 dosed
Protocol: as §1

IL-8 = assay: qRT-PCR gene expression in EPIAIRWAY cells; type: cell-based, human; conditions: 24 hours
Protocol: as §1

TNF-α = assay: qRT-PCR gene expression in EPIAIRWAY cells; type: cell-based, human; conditions: for TNF-α mRNA expression vs control: 1, 10, 30, 100 dosed
Protocol: as §1

[3] = system: fetal human lung cells and human lung fibroblasts; conditions: Sakaguchi 1984, Lehnert 2001; cited from earlier work
EPIAIRWAY cells [4] = assay: Histology of EPIAIRWAY 3-D model (structural integrity); type: cell-based, human
Protocol: as §1
Cells were isolated using a 3 mm biopsy punch (Miltex, York, PA) and immediately placed in […] 10% Neutral Buffered Formalin (Fisher Diagnostics, Middletown, Va.). Histology was performed essentially as described by Sheehan and Hrapchak (1980). Briefly, cells were processed and embedded into paraffin wax blocks. The blocks were sectioned at 3 μm, adhered to slides and stained with hematoxylin and eosin. Photos were taken at 10× magnification.

Bax = assay: qRT-PCR gene expression in EPIAIRWAY cells; type: cell-based, human; conditions: 24 hours
Protocol: as §1

human epithelial cells = conditions: Han et al., 2007; cited from earlier work
[5] = system: human fetal lung fibroblasts; conditions: Yang et al., 1997; cited from earlier work
[6] = Literature: phase 1 study of inhaled doxorubicin; type: in vivo, human; conditions: calculated from 7.5 mg/m^2
Protocol: as §1

[7] = every 3 weeks, phase 1 study (Otterson 2007); cited from earlier work
TGF-β = assay: qRT-PCR gene expression in EPIAIRWAY cells; type: cell-based, human; conditions: 24 hours of exposure
Protocol: as §1

EPIAIRWAY cells [8] = assay: LDH release into the media by EPIAIRWAY cells; type: cell-based, human; conditions: 100 μM
Source text: The primary shortcoming of this model system appears to be that the MTT results to not compare well with histology. This may be due to the fact that the basal cell layers have the highest metabolic activity given that they are still rapidly dividing. […] Fortunately, there appears to be a much more concise method to assess cytotoxicity in this model system. Lactate dehydrogenase is a cytosolic enzyme commonly used as a marker for cell membrane permeability, and therefore, cytotoxicity (Davies et al., 1973).

[9] = system: human lung epithelia and fibroblasts; conditions: in vitro (Sato 1999, Takamizawa 1999); ~7.1 μM; cited from earlier work
[10] = any dose (1, 10, 30, 100), 24 and 72 hours
[11] = 24 hours, 1, 10, 30, 100 dosed, >2-fold significant
[12] = dose-dependent, 1-100 μM, maximum reached

Protocol for CYP1A1: The three-dimensional in vitro human [sequence] system may be purchased from MatTek (Ashland, Mass.). Cultures are maintained with supplied culture media according to the manufacturer's instructions. Briefly, [sequence] 96-well plates are allowed to equilibrate in 250 μL media for at least 18 hours overnight at 37° C. with 5% CO2 upon arrival. Media is changed every other day if cells are not used immediately after equilibration.
In the Examples described below, dosing solutions were prepared in DPBS (MatTek, Ashland, Mass.). The [sequence] cells were dosed with 100 μL of the following concentrations: 1, 10, 30 and 100 μM bleomycin, cadmium chloride, beryllium sulfate and doxorubicin; 1, 10, 30 and 100 μg/cm^2 silica; and 1, 10, 30 and 100 ng/mL LPS. […] The dosing regimen used here brackets this dose. […] Again, the dosing regimen used brackets this concentration. […] This calculates to 750 ng/cm^2. The concentrations and volumes dosed calculate to 483 ng/cm^2 (1 μM), 4.83 μg/cm^2 (10 μM), 14.5 μg/cm^2 (30 μM) and 48.3 μg/cm^2 (100 μM) doxorubicin, bracketing the safe range. MIN-U-SIL 5 silica, with an average surface area of 5.1 cm^2/g gives the following concentrations dosed: 0.051 cm^2/cm^2 (1 μg/cm^2), 0.51 cm^2/cm^2 (10 μg/cm^2), 1.53 cm^2/cm^2 (30 μg/cm^2) and 5.1 cm^2/cm^2 (100 μg/cm^2). […] In order to analyze the acute response of [sequence] cells to LPS, cells are exposed to LPS concentrations ranging from 1 ng/mL to 100 ng/mL. Following the exposure period, the dosing solutions are removed and cells are analyzed for changes in structure, cell viability, oxidative stress and gene expression.
Total RNA was isolated from [sequence] human respiratory cells by the TRIZOL (Invitrogen, Carlsbad, Calif.) method (Chomczynski and Sacchi, 1987)with modifications. Briefly, cells were punched out using a biopsy punch (Miltex, York, Pa.) and immediately placed in TRIZOL. The samples were then frozen at −80° C. until needed. After thawing, the isolation procedure followed the manufacturer's instructions.
Induction of target gene mRNA was determined as follows, by standard one-step qRT-PCR techniques using multiple internal control genes for normalization with a few modifications (Vandesompele et al, 2002). RT-PCR was performed using the Quantitect® SYBR Green RT-PCR kit (Qiagen, Valencia, Calif.) according to the manufacturer's instructions for 20 μL reactions. All primers were [sequence] Primer Assay (Qiagen, Valencia, Calif.) containing forward and reverse primers in the same tube (see Table 1, below). Briefly, 50 ng of RNA in 20 μL reactions are set up in 384-well RT-PCR plates (Roche Diagnostics Corp., Indianapolis, Ind.) and placed in a [sequence] 480 real time PCR machine (Roche Diagnostics Corp., Indianapolis, Ind.). One-step PCR was set as follows; reverse transcription was 1 cycle of 50° C. for 30 minutes followed by 95° C. for 15 minutes. Amplification was set for 45 cycles of 94° C. for 15 seconds, 55° C. for 20 seconds and 72° C. for 20 seconds. Melting curve was generated by 1 cycle of 95° C. for 5 seconds followed by 65° C. for 1 minute. Data were analyzed using the [sequence] 480 software version 1.5.0.39 (Roche Diagnostics Corp., Indianapolis, Ind.). The expression levels of multiple housekeeping genes were determined and an average fold induction over vehicle was elucidated for each housekeeping gene.

Molecule: O=S(=O)([O-])[O-].[Be+2] [Beryllium sulfate, beryllium sulfate]
- Effect on cell viability (MTT) (EPIAIRWAY cells [1]; [10]): did not reduce cell viability
- Intracellular GSH (EPIAIRWAY cells [2]; 1 μM, 72 hours): 65 % of control
- Effect on intracellular GSH (EPIAIRWAY cells [2]; 10 μM, 72 hours): did not have an effect
- Intracellular GSH (EPIAIRWAY cells [2]; 30 μM, 72 hours): 83 % of control
- Intracellular GSH (EPIAIRWAY cells [2]; 100 μM, 72 hours): 71 % of control
- Effect on intracellular GSH (EPIAIRWAY cells [2]; 24 hours, 1, 10, 30 and 100 μM): no effect
- Bcl2 mRNA expression vs control (Bcl2; 100 μM): mildly induced
- IL-1α mRNA expression vs control (IL-1α): substantially induced
- IL-6 mRNA expression vs control (IL-6): substantially induced
- IL-8 mRNA expression vs control (IL-8; 1 and 30 μM): mildly induced
- TNFα mRNA expression vs control (TNF-α; 100 μM, 24 hours): mildly induced
- CYP1A1 mRNA expression vs control (CYP1A1; [11]): substantially induced

Molecule: [Be+2] [Beryllium]
- Lowest cytotoxic concentration [3]: ≥ 5.5 µM

Molecule: [Cl][Cd][Cl] [Cadmium chloride, cadmium chloride]
- Cell viability (MTT) (EPIAIRWAY cells [1]; 100 μM, 24 hours): 56 % of control
- Histology: cell structure (EPIAIRWAY cells [4]; 10 μM, 24 hour exposure): cell loss
- Histology: cell structure (EPIAIRWAY cells [4]; 100 μM, 24 hour exposure): much more noticeable a breakdown of cellular structure
- Histology: cell structure (EPIAIRWAY cells [4]; 24 hours): significant structural breakdown and cell loss
- Effect on intracellular GSH (EPIAIRWAY cells [2]; 24 hours, 1, 10, 30 and 100 μM): no reduction
- Bax mRNA expression vs control (Bax; 100 μM): mildly induced
- Bcl2 mRNA expression vs control (Bcl2; 100 μM): mildly induced
- IL-6 mRNA expression vs control (IL-6): substantially induced
- TNF-α mRNA expression vs control (TNF-α; 24 hours): mild induction
- CYP1A1 mRNA expression vs control (CYP1A1; [11]): substantially induced
- Concentration exhibiting cytotoxicity (human epithelial cells): 50 µM
- Concentration inducing significant LDH release [5]: 8.75 µM

Molecule: COc1cccc2c1C(=O)c1c(O)c3c(c(O)c1C2=O)C[C@@](O)(C(=O)CO)C[C@@H]3O[C@H]1C[C@H](N)[C@H](O)[C@H](C)O1 [Doxorubicin]
- Effect on cell viability (MTT) (EPIAIRWAY cells [1]; 1 μM, either time point (24, 72 hours)): no effect on cell viability
- Cell viability (MTT) (EPIAIRWAY cells [1]; 100 μM, 72 hours): 57 % of control
- Effect on cell viability (MTT) (EPIAIRWAY cells [1]; 24 hours, 1, 10, 30 and 100 μM): not observed
- Histology: cell structure (EPIAIRWAY cells [4]; 24 hours): significant structural breakdown and loss of cells; also recorded: significant structural breakdown and cell loss
- Intracellular GSH (EPIAIRWAY cells [2]; 100 μM, 72 hours): 10 % of control
- Intracellular GSH (EPIAIRWAY cells [2]; 10, 30 and 100 μM, 24 hours): 80 % of control
- Ratio of Bax:Bcl2 expression (Bax): decreased
- Bcl2 mRNA expression vs control (Bcl2; 1, 10, 30 and 100 μM): substantially induced
- IL-1α mRNA expression vs control (IL-1α): substantially induced
- IL-6 mRNA expression vs control (IL-6): substantially induced
- IL-8 mRNA expression vs control (IL-8; only 1 μM): mildly induced
- TNF-α mRNA expression vs control (TNF-α; 24 hours): substantially induced
- Safe inhalation dose recalculated per area [6]: 750 ng/cm^2
- CYP1A1 mRNA expression vs control (CYP1A1): substantially induced
- Dose identified as safe for inhalation [7]: up to 7.5 mg/m^2

Molecule: Bleomycin
- Effect on cell viability (MTT) (EPIAIRWAY cells [1]; 24 hours, 1, 10, 30 and 100 μM): no effect on viability
- Cell viability (MTT) (EPIAIRWAY cells [1]; 72 hour exposure, 1, 10, 30 and 100 μM dosed): 90 % of control
- Histology: cell structure (EPIAIRWAY cells [4]; 24 hours): significant structural breakdown and cell loss; also recorded: significant structural breakdown and loss of cells
- Intracellular GSH (EPIAIRWAY cells [2]; 1 μM, 72 hours): 71 % of control
- Total cellular GSH (EPIAIRWAY cells [2]; 100 μM, 24 hours): 75 % of control
- Ratio of Bax:Bcl2 expression (Bax): decreased
- Bcl2 mRNA expression vs control (Bcl2; 1, 10, 30 and 100 μM): induced
- IL-1α mRNA expression vs control (IL-1α): induced in a dose-dependent manner
- IL-6 mRNA increase over control tissues (IL-6; [12]): > 20 fold
- IL-8 mRNA expression vs control (IL-8; 1, 10, 30, 100 dosed): induced in a dose-dependent manner
- TGF-β mRNA expression vs control (TGF-β): induction was not seen
- TNF-α mRNA increase over control tissues (TNF-α; [12]): > 20 fold
- LDH release into the media, increase compared to control (EPIAIRWAY cells [8]; 24 hours): 292%
- LDH release into the media, increase compared to control (EPIAIRWAY cells [8]; 72 hours): 588%
- CYP1A1 mRNA expression vs control (CYP1A1; [11]): greatly induced
- Concentration inducing cytokine release while relatively non-toxic [9]: 10 µg/mL

Molecule: Triton X-100
- Histology: killing of basal cell layers (EPIAIRWAY cells [4]; 0.3%, 24 hours): unable to kill these bottom layers of cells

Molecule: lipopolysaccharide [LPS]
- Effect on cell viability (MTT) (EPIAIRWAY cells [1]; [10]): did not reduce cell viability
- Intracellular GSH (EPIAIRWAY cells [2]; 100 ng/mL, 24 hours): 65 % of control
- Bcl2 mRNA expression vs control (Bcl2; only 30 and 100 ng/mL): induced
- IL-1α mRNA expression vs control (IL-1α): substantial, dose-independant induction
- IL-6 mRNA expression vs control (IL-6): substantial, dose-independant induction
- IL-8 mRNA expression vs control (IL-8; 1, 10, 30, 100 dosed): mild induction
- TNF-α mRNA expression vs control (TNF-α; 24 hours): substantial, dose-independant induction
- CYP1A1 mRNA expression vs control (CYP1A1; [11]): dose-dependant increase
